Experimental findings from PubChem BioAssay (NCI) are described below.

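The compound was tested at five concentrations on cells cultured in 96-well plates, with a 48-hour exposure period. At the TGI there is no net growth.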

Some test systems named below: IGROV1 ovarian; COLO 205 colon; OVCAR-8 ovarian; NCI-H226 lung; MDA-MB-231 breast; MOLT-4 leukemia; HCT-15 colon; U251 CNS; SR leukemia; A498 renal.
Common to all, as to assay: NCI tumour cell line growth inhibition, 48 h

Consider `CCOP(=O)(/C=C\n1ccc(N)nc1=O)OCC`, for which the TGI with IGROV1 ovarian, with COLO 205 colon, in the experiment with OVCAR-8 ovarian, with NCI-H226 lung, in the experiment with MDA-MB-231 breast and in the experiment with MOLT-4 leukemia was over 100 µM throughout. Further, the TGI with HCT-15 colon and with U251 CNS was over 100 µM each time.

Consider `c1ccc(N2N=C(c3ccco3)CC2c2ccco2)cc1` (stereo unspecified), for which the TGI in the experiment on IGROV1 ovarian is over 100 µM; in the experiment on COLO 205 colon it was over 100 µM; with OVCAR-8 ovarian, over 100 µM; with NCI-H226 lung, over 100 µM; in the experiment on SR leukemia it was over 100 µM; in the experiment on MOLT-4 leukemia, 52.4 µM. Moreover, the TGI with HCT-15 colon and in the experiment on U251 CNS was over 100 µM throughout.

In the case of `CN(C)CCC(=O)/C=C\c1ccccc1`, the TGI is 62 µM with IGROV1 ovarian; 29.3 µM in the experiment on COLO 205 colon; 37 µM in the experiment with OVCAR-8 ovarian; 49.3 µM with NCI-H226 lung; 35.1 µM in the experiment on SR leukemia; 39.5 µM with A498 renal. Moreover, the values for the TGI in the experiment on MOLT-4 leukemia, in the experiment with HCT-15 colon and in the experiment with U251 CNS were 33.1 µM, 30.9 µM and 31.6 µM, respectively.

With `COc1cc(NC(C)=O)ccc1C(=O)NN1C(=O)/C(=C/c2ccco2)N=C1c1ccccc1`, the TGI with IGROV1 ovarian is over 50 µM; in the experiment with COLO 205 colon, over 50 µM; in the experiment on OVCAR-8 ovarian, over 50 µM; in the experiment with SR leukemia, over 50 µM; in the experiment on A498 renal, over 50 µM; with MOLT-4 leukemia, 45.6 µM. Moreover, the TGI in the experiment with HCT-15 colon was over 50 µM.

Consider `C1=C\SS/C=C\SS/1`, for which the TGI with IGROV1 ovarian was 62.5 µM; with COLO 205 colon, over 100 µM; in the experiment with OVCAR-8 ovarian, 49.8 µM; with NCI-H226 lung, over 100 µM; in the experiment on SR leukemia, over 100 µM; with A498 renal, over 100 µM. For the same molecule, the values for the TGI in the experiment on MOLT-4 leukemia, in the experiment on HCT-15 colon and with U251 CNS were 78.7 µM, 34 µM and over 100 µM, respectively.

As to `Nc1nn2c(=O)c3ccccc3nc2s1`, the TGI was over 100 µM with IGROV1 ovarian; over 100 µM in the experiment on COLO 205 colon; over 100 µM with OVCAR-8 ovarian; 91.1 µM with NCI-H226 lung; 44.7 µM in the experiment with SR leukemia; over 100 µM in the experiment with A498 renal. The values for the TGI with MOLT-4 leukemia, with HCT-15 colon and with U251 CNS were 53.1 µM, over 100 µM and over 100 µM, respectively.

For the molecule `Cc1ccc(/C=C2\Cc3c(C)cc(C)cc3C2=O)c(C(=O)O)c1`, the TGI in the experiment with IGROV1 ovarian is over 100 µM; in the experiment with COLO 205 colon, 98.2 µM; in the experiment with OVCAR-8 ovarian, over 100 µM; in the experiment with NCI-H226 lung it was 71.4 µM; in the experiment on SR leukemia, 68.7 µM; in the experiment on A498 renal, 84.1 µM. In addition, the TGI in the experiment on MOLT-4 leukemia, in the experiment with HCT-15 colon and in the experiment with U251 CNS was over 100 µM throughout.

Regarding `c1c2c(cc(-n3nnc4c3CCCCCC4)c1-n1nnc3c1CCCCCC3)CCCCCC2`, the TGI was found to be 41.2 µM in the experiment on IGROV1 ovarian; 38.7 µM in the experiment on OVCAR-8 ovarian; 41.6 µM in the experiment with NCI-H226 lung; 22.2 µM in the experiment on A498 renal; 11 µM with MOLT-4 leukemia; 19 µM with HCT-15 colon. The same molecule had a TGI in the experiment with U251 CNS of 22.4 µM.

In the case of `COc1ccc(C2c3cc4c(cc3OC(N3CCOCC3)C2C)OCO4)c(OC)c1OC` (stereo unspecified), the TGI is 70.7 µM in the experiment on IGROV1 ovarian; 33.6 µM in the experiment on COLO 205 colon; over 100 µM in the experiment with OVCAR-8 ovarian; 35.6 µM in the experiment on SR leukemia; 34 µM with MOLT-4 leukemia; over 100 µM in the experiment with HCT-15 colon.

`C=C(C)C1C/C=C(/C)CCCC2(CCC3=C(CC(C(=C)C)C/C=C(/C)CCC3)O2)C(=O)C1` (stereo unspecified): the TGI in the experiment with IGROV1 ovarian, in the experiment with COLO 205 colon, with OVCAR-8 ovarian, with NCI-H226 lung, in the experiment with SR leukemia and in the experiment with A498 renal was over 100 µM each time. For the same molecule, the TGI in the experiment with MOLT-4 leukemia, in the experiment with HCT-15 colon and with U251 CNS was over 100 µM each time.

For the molecule `CC1(C)[C@H]2CC[C@@]13C(=O)N1C(=O)O[C@@H]([C@H]1Cl)C(Cl)(COCc1ccccc1)C(=O)OCCO[C@H]3C2` (stereo partly specified), the TGI with IGROV1 ovarian is over 100 µM; in the experiment with COLO 205 colon, 36.6 µM; in the experiment with OVCAR-8 ovarian, over 100 µM; in the experiment on SR leukemia it was over 100 µM; in the experiment on A498 renal, over 100 µM; in the experiment on MOLT-4 leukemia, 76.9 µM. Besides, the TGI in the experiment with HCT-15 colon and with U251 CNS was over 100 µM throughout.

On to `CCOC(=O)C(NC(=O)c1nc[nH]c1[N+](=O)[O-])C(C)C` (stereo unspecified), for which the TGI in the experiment on IGROV1 ovarian, with COLO 205 colon, in the experiment on OVCAR-8 ovarian, in the experiment on NCI-H226 lung, in the experiment with SR leukemia and in the experiment on A498 renal was over 100 µM each time. The TGI with MOLT-4 leukemia, in the experiment on HCT-15 colon and in the experiment on U251 CNS was over 100 µM in each case.

With `CC12CCCC3(CC(=O)C(C)(C)C3C(=O)C1)C2` (stereo unspecified), the TGI in the experiment on IGROV1 ovarian, in the experiment on COLO 205 colon, in the experiment on OVCAR-8 ovarian, in the experiment on NCI-H226 lung, in the experiment with SR leukemia and with MOLT-4 leukemia was over 100 µM throughout. The TGI in the experiment with HCT-15 colon and in the experiment on U251 CNS was over 100 µM each time.
